Test results published in article PMC7555839 (Frontiers in Microbiology, 2020).
Where two headings read alike, the source gives them in different places.

Columns and labels:
[1] = system: Staphylococcus aureus USA300 JE2; test: Broth microdilution (MIC/MBC); type: cell-based; details: USA300 JE2, human clinical isolate
[2] = system: S. aureus CC398 (in house strain); test: Broth microdilution (MIC/MBC); type: cell-based; details: Staphylococcus aureus; CC398, veterinary clinical isolate
[3] = system: S. epidermidis 105 (in house strain); test: Broth microdilution (MIC/MBC); type: cell-based; details: Staphylococcus epidermidis; strain 105, human clinical isolate
[4] = system: Enterococcus faecalis JEO72G7B; test: Broth microdilution (MIC/MBC); type: cell-based; details: veterinary clinical isolate
[5] = system: Enterococcus faecium ATCC 700221; test: Broth microdilution (MIC/MBC); type: cell-based; details: ATCC700221, ATCC 700221, human clinical isolate
[6] = system: Proteus vulgaris JEO1; test: Broth microdilution (MIC/MBC); type: cell-based; details: JEO1, veterinary clinical isolate
[7] = system: Escherichia coli E2 (in house strain); test: Broth microdilution (MIC/MBC); type: cell-based; details: E2, human clinical isolate
[8] = system: E. coli APEC O2 (in house strain); test: Broth microdilution (MIC/MBC); type: cell-based; details: Escherichia coli; APEC O2, veterinary clinical isolate
[9] = system: MRSA strain 43484; test: Mouse skin (wound) infection model, topical treatment; type: in vivo, Staphylococcus aureus; details: 50 μl topical twice daily for 3 days, female mice, skin biopsies day 4
Method: To study the effect of topical treatment with JBC 1847 against MRSA strain 43484, a mouse skin infection model was established. Initially, female mice (18–22 g) were orally treated with 45 μl nurofen (20 mg ibuprofen/ml) and anaesthetized with 0.15 ml s.c. of Zoletil mix. The fur was removed from an area of 6 cm^2 and a part of epidermis was subsequently scraped off to obtain a 1 cm^2 superficial skin lesion. The mice were inoculated with 10 μl of a saline solution containing approximately 10^7 CFU. The day after inoculation, topical treatment with 50 μl test compound was initiated and performed twice daily for a 3-day period. Fucidic acid was included as a positive control, and vehicle treatment was included as a negative control. Through the entire study, the behavior and clinical signs of the mice were carefully observed. Mice were killed the day after last treatment, and skin biopsies from the wounded area were collected. The skin samples were homogenized using a Dispomixer and serially diluted in saline/Triton X. To determine the bacterial concentration, 20 μl spots were transferred to MRSA Brilliance agar plates (Oxoid, Thermo Scientific, Roskilde, Denmark) and incubated 20–48 h at 35°C.
Data were statically analyzed and visualized using RStudio v3.6.3 ([R Core Team, 2020]) and Microsoft excel. In general, the values reflecting the bacterial concentration (CFU/ml) were transformed into a logarithmic scale. In the growth and viability assay, the mean numbers of the bacterial concentrations from the triplicates were plotted against time and standard deviations shown as error bars. To investigate differences in bacterial concentration between treatment groups in the in vivo assay, multiple group comparisons were performed using ANOVA and P < 0.05 considered significant. The data was visualized in a standard box plot.

[10] = system: five bacterial tester strains; test: Ames test, overall evaluation (five tester strains); type: cell-based; details: in general
Source text: In this reverse mutation assay, five bacterial tester strains recommended by The Organization for Economic Cooperation and Development (OECD), were exposed to JBC 1847 in presence and absence of a metabolic activation system (S9) obtained from rat liver extract ([Maron and Ames, 1983]; [Levy et al., 2019]). The characteristics of the four Salmonella typhimurium mutants (TA98, TA100, TA1535, TA1537) and a single Escherichia coli mutant [wp2 (pKM101)] have been described by [Mortelmans and Zeiger (2000)] and [Levy et al. (2019)]. Prior to testing, the genotypes of all strains were confirmed as previously described ([Mortelmans and Zeiger, 2000]), and JBC 1847 was tested in various concentrations (1.5, 4, 10, 25, 64, 160, 400, and 1,000 μg/well) whereas DMSO served as negative control. As positive controls, five mutagenic compounds were applied in various concentrations (Supplementary Material). The Ames test was performed as described in Supplementary Material where acceptance criteria for the test results can also be found. To evaluate the test results, the mutagenicity ratio (MR) was calculated and interpreted as in previous studies ([Pah and Lakhani, 2012]; [Wang et al., 2018]). The MR was calculated as MR = x/xn. Here, x was the number of reverse mutated colonies exposed to JCB 1847 whereas xn was the number of reverse mutated colonies in the negative controls. […]

[11] = system: Salmonella typhimurium TA100
[12] = system: Salmonella typhimurium TA1535
[13] = system: Escherichia coli mutant [wp2 (pKM101)]
[14] = system: S. aureus USA300; test: Induced tolerance assay (23 days); details: for MIC: Staphylococcus aureus

## CC(C)=CCCC(C)CC[N+](C)(C)CCCN1c2ccccc2Sc2ccccc21 (stereo not drawn) [JBC 1847]
[1]
  MBC: 0.5 µg/mL
[1]; read-out: MIC
  MIC: 0.5 µg/mL
[2]
  MBC: 0.5 µg/mL
  MIC: 0.5 µg/mL
[3]
  MIC: 0.5 µg/mL
[4]
  MBC: 1 µg/mL
  MIC: 1 µg/mL
[5]
  MBC: 2 to 4 µg/mL
  MIC: 2 µg/mL
[6]
  MBC: 32 µg/mL
  MIC: 32 µg/mL
[7]
  MBC: 8 µg/mL
  MIC: 8 µg/mL
[8]
  MBC: 16 µg/mL
  MIC: 16 µg/mL
[9]; 1% solution
  Reduction of bacterial counts compared with the vehicle: 3.0 log10 CFU
[9]; 2%
  Reduction of bacterial counts compared with the vehicle: 3.7 log10 CFU
[10]; all strains, MR ≥ 2 interpreted as positive
  Mutagenicity ratio (MR): < 2
[10]; presence and absence of S9
  Ames test result: non-mutagenic
[11]; TA100, + S9, 1.5 μg/well
  Mean number of reverse mutated colonies: 21.33 ± 2.08
[11]; TA100, + S9, 4 μg/well
  Mean number of reverse mutated colonies: 19.00 ± 5.29
[11]; TA100, + S9, 10 μg/well
  Mean number of reverse mutated colonies: 13.67 ± 1.53
[11]; TA100, + S9, 64 μg/well
  Mean number of reverse mutated colonies: 0.0
[11]; TA100, −S9, 1.5 μg/well
  Mean number of reverse mutated colonies: 24.33 ± 3.21
[11]; TA100, −S9, 4 μg/well
  Mean number of reverse mutated colonies: 26.67 ± 2.08
[11]; TA100, −S9, 10 μg/well
  Mean number of reverse mutated colonies: 18.00 ± 5.57
[11]; TA100, −S9, 25 μg/well
  Mean number of reverse mutated colonies: 0.0
[11]; TA100, −S9, 64 μg/well
  Mean number of reverse mutated colonies: 0.0
[12]; TA1535, + S9, 1.5 μg/well
  Mean number of reverse mutated colonies: 24.33 ± 3.21
[12]; TA1535, + S9, 4 μg/well
  Mean number of reverse mutated colonies: 26.67 ± 2.08
[12]; TA1535, + S9, 10 μg/well
  Mean number of reverse mutated colonies: 18.00 ± 5.57
[12]; TA1535, + S9, 64 μg/well
  Mean number of reverse mutated colonies: 0.0
[12]; TA1535, −S9, 1.5 μg/well
  Mean number of reverse mutated colonies: 24.33 ± 3.21
[12]; TA1535, −S9, 4 μg/well
  Mean number of reverse mutated colonies: 26.67 ± 2.08
[12]; TA1535, −S9, 10 μg/well
  Mean number of reverse mutated colonies: 18.00 ± 5.57
[12]; TA1535, −S9, 25 μg/well
  Mean number of reverse mutated colonies: 0.0
[12]; TA1535, −S9, 64 μg/well
  Mean number of reverse mutated colonies: 0.0
[13]; + S9, 1.5 μg/well
  Mean number of reverse mutated colonies: 51.33 ± 12.86
[13]; + S9, 4 μg/well
  Mean number of reverse mutated colonies: 40.67 ± 9.07
[13]; + S9, 10 μg/well
  Mean number of reverse mutated colonies: 40.67 ± 13.32
[13]; + S9, 25 μg/well
  Mean number of reverse mutated colonies: 9.67 ± 2.08
[13]; + S9, 64 μg/well
  Mean number of reverse mutated colonies: 0.0
[13]; −S9, 1.5 μg/well
  Mean number of reverse mutated colonies: 33.00 ± 2.65
[13]; −S9, 4 μg/well
  Mean number of reverse mutated colonies: 39.33 ± 5.69
[13]; −S9, 10 μg/well
  Mean number of reverse mutated colonies: 17.33 ± 7.09
[13]; −S9, 64 μg/well
  Mean number of reverse mutated colonies: 0.0
[14]; USA300, 24 h, read-out: MIC Day 1
  MIC: 0.5 µg/mL
[14]; USA300, 96 h, read-out: Highest MIC
  MIC: 3.5 µg/mL
[14]; USA300, 96 h, read-out: MIC values after day 4
  MIC: 1 to 2.5 µg/mL
[14]; USA300, 552 h, read-out: MIC Day 23
  MIC: 3.5 µg/mL
[14]; tolerance assay, during the 23 days
  Increase in MIC: 7 fold
